The source of these data is patent US20220117945A1, “ISOXAZOLE CARBOXAMIDE COMPOUNDS AND USES THEREOF” (NOVARTIS AG, priority 2017, published 2022).

SMILES strings stand for the structures.

The assay has as its system Atoh1 expression in mouse cerebellar neural precursor cells. Briefly: Atoh1 induction assay in mouse cerebellar neural precursor cells (NPCs), Atoh1-GFP reporter. Format: cell-based. The settings on record: 10 doses 50 μM to 200 nM, 72 hours treatment, DMSO control = 1, more than 5 considered significant, read-out: fold difference (maximum fold difference of GFP average intensity in cell nuclei over the DMSO control). Here is the method:
Compounds of the present disclosure were assessed for their ability to increase the Atoh1 expression in mouse cerebellar neural precursor cells. The ability of compounds of the present disclosure to induce new hair cell formation was assessed in ex vivo hair cell induction assay using 6-day-postnatal mouse cochlea explants with hair cell damage.
Atoh1 Induction Assay in Mouse Cerebellar Neural Precursor Cells (NPCs)
Atoh1 induction assay was conducted with in vitro cultured cerebellar neural precursor cells isolated from neonatal transgenic Atoh1-GFP mice. Atoh1 expression is mainly regulated by the enhancer, and the nuclear GFP was driven by the cloned enhancer sequence at 3′ of Atoh1 which had high conservation among mammalians. So Atoh1 induction could be reflected by GFP activation in cerebellar neural precursor cells (Helms et al., Development 2000; 127: 1185-1196; Lumpkin et al., Gene Expression Patterns 2003; 3: 389-395). Postnatal 3 days pups were dissected for cerebellum tissue isolation. The cerebellum tissue was cut into small pieces, and dissociated with 0.05% Trypsin for about 10 minutes at 37° C., and then filtered with a 70 uM cell strainer. The cells were cultured as neuropsheres for the first 2 days in ultra-low attachment dish/well-plate with DMEM/F12+1% N2 &2% B27 with 1% P/S, 20 ng/ml rhFGF2 and 20 ng/ml rhEGF (R&D Systems). Then the spheres were plated to the matrigel (1:30 diluted in DMEM/F12)-coated tissue culture dish for monolayer culture. After 4.5-5.5 days culture in vitro (DIV), cells were dissociated with 0.05% trypsin into single cells, and frozen after cell number calculation.
The cerebellar neural precursor cells (NPCs) were re-thawed from stock and cultured for another 2 days before used for Atoh1 induction assay. On the first day of assay, NPCs were seeded into matrigel-coated 384 well plates (Black view-plate, PE) at 2500 cells/well. After over-night culture, the NPCs were treated with representative compounds of the present disclosure with 1:2 serial dilutions for 10 doses, from 50 μM to 200 nM, with DMSO as negative control. After 72 hours treatment without medium change, the cells were fixed with 4% formalin for staining. Assay plates were stained with GFP antibody (Abcam, #13970, 1:1000) to amplify endogenous GFP signal and then read by Cellomics.
With `CCNC(=O)C1CN(CCCCCNC(=O)c2cc(-c3ccc(F)cc3)on2)C1` [Example 86, N-(5-(3-(Ethylcarbamoyl)azetidin-1-yl)pentyl)-5-(4-fluorophenyl)isoxazole-3-carboxamide], the maximal fold induction amounted to 36.7.

`O=C(NCCCCCN1CC(C(=O)NCCCO)C1)c1cc(-c2cccs2)on1` [Example 81, N-(5-(3-((3-Hydroxypropyl)carbamoyl)azetidin-1-yl)pentyl)-5-(thiophen-2-yl)isoxazole-3-carboxamide]: the maximal fold induction worked out at 33.

As to `NC(=O)C1CN(CCC(F)(F)CCNC(=O)c2cc(-c3cccs3)on2)C1` [Example 75, N-(5-(3-Carbamoylazetidin-1-yl)-3,3-difluoropentyl)-5-(thiophen-2-yl)isoxazole-3-carboxamide], the maximal fold induction amounted to 20.6.

For `CS(=O)(=O)C1CN(CCCCCNC(=O)c2cc(-c3cccs3)on2)C1` [Example 63], the maximal fold induction is 19.8.

Consider `NS(=O)(=O)C1CN(CCCCCNC(=O)c2cc(-c3cccs3)on2)C1` [Example 72, N-(5-(3-sulfamoylazetidin-1-yl)pentyl)-5-(thiophen-2-yl)isoxazole-3-carboxamide], for which the maximal fold induction was 15.5.

`O=C(NCCCCCN1CC(C(=O)NC2CCCC2O)C1)c1cc(-c2cccs2)on1` (centres unmarked) [Example 83, N-(5-(3-((2-Hydroxycyclopentyl)carbamoyl)azetidin-1-yl)pentyl)-5-(thiophen-2-yl)isoxazole-3-carboxamide]: the maximal fold induction is 34.4.

For `O=C(NCCCCCN1CC(C(=O)N[C@H]2C[C@@H](O)C2)C1)c1cc(-c2cccs2)on1` [Example 79, N-(5-(3-(((1,3-cis)-3-Hydroxycyclobutyl)carbamoyl)azetidin-1-yl)pentyl)-5-(thiophen-2-yl)isoxazole-3-carboxamide], the maximal fold induction turned out to be 26.6.

With `O=C(NCCCCCN1CC(c2ncc[nH]2)C1)c1cc(-c2ccc(F)cc2)on1` [Example 71], the maximal fold induction came to 26.8.

Turning to `COC1CN(CCCCCNC(=O)c2cc(-c3ccc(F)cc3)on2)C1` [Example 68], the maximal fold induction was determined as 22.3.

With `N#CCNC(=O)C1CN(CCCCCNC(=O)c2cc(-c3ccc(F)cc3)on2)C1` [Example 88, N-(5-(3-((Cyanomethyl)carbamoyl)azetidin-1-yl)pentyl)-5-(4-fluorophenyl)isoxazole-3-carboxamide], the maximal fold induction amounted to 9.3.

As for `O=C(NCCCCCN1CC(C(=O)NCCO)C1)c1cc(-c2cccs2)on1` [Example 78, N-(5-(3-((2-Hydroxyethyl)carbamoyl)azetidin-1-yl)pentyl)-5-(thiophen-2-yl)isoxazole-3-carboxamide], the maximal fold induction came out at 23.1.

As for `N#CCNC(=O)C1CN(CCCCCNC(=O)c2cc(-c3cccs3)on2)C1` [Example 77, N-(5-(3-((Cyanomethyl)carbamoyl)azetidin-1-yl)pentyl)-5-(thiophen-2-yl)isoxazole-3-carboxamide], the maximal fold induction came out at 24.1.

For `O=C1CCN(CCCCCNC(=O)c2cc(-c3cccs3)on2)C1` [Example 26, N-(5-(3-Oxopyrrolidin-1-yl)pentyl)-5-(thiophen-2-yl)isoxazole-3-carboxamide], the maximal fold induction stood at 7.1.

In the case of `C[C@@H]1CNCCN1CCCCCNC(=O)c1cc(-c2cccs2)on1` [Example 5, (R)—N-(5-(2-Methylpiperazin-1-yl)pentyl)-5-(thiophen-2-yl)isoxazole-3-carboxamide], the maximal fold induction stood at 32.5.

For `CNC(=O)N1CCN(CCCCCNC(=O)c2cc(-c3cccs3)on2)CC1` [Example 25, N-(5-(4-(Methylcarbamoyl)piperazin-1-yl)pentyl)-5-(thiophen-2-yl)isoxazole-3-carboxamide], the maximal fold induction was 10.1.

On to `CNC(=O)C1CN(CCCCCNC(=O)c2cc(-c3cccs3)on2)C1` [Example 61, N-(5-(3-(methylcarbamoyl)azetidin-1-yl)pentyl)-5-(thiophen-2-yl)isoxazole-3-carboxamide], for which the maximal fold induction stood at 33.7.

For the compound `CN1CC2CCC(C1)N2CCCCCNC(=O)c1cc(-c2cccs2)on1` [Example 13, N-(5-(3-Methyl-3,8-diazabicyclo[3.2.1]octan-8-yl)pentyl)-5-(thiophen-2-yl)isoxazole-3-carboxamide], the maximal fold induction was found to be 23.

With `O=C(NCCCCCN1CCC(F)C1)c1cc(-c2cccs2)on1` (centres unmarked) [Example 32], the maximal fold induction was found to be 26.8.

For the compound `CN1CCN(CCCCCNC(=O)c2cc(-c3cccs3)on2)CC1=O` [Example 38], the maximal fold induction amounted to 34.3.

`O=C(NCCCCCN1CC(C(=O)NC2CCC(O)C2)C1)c1cc(-c2cccs2)on1` (centres unmarked) [Example 82, N-(5-(3-((3-Hydroxycyclopentyl)carbamoyl)azetidin-1-yl)pentyl)-5-(thiophen-2-yl)isoxazole-3-carboxamide]: the maximal fold induction came out at 31.9.

As to `O=C(NCCCCCN1CC(F)(F)C1)c1cc(-c2cccs2)on1` [Example 58], the maximal fold induction is 10.

`N#CC1CN(CCCCCNC(=O)c2cc(-c3ccc(F)cc3)on2)C1` [Example 64]: the maximal fold induction was found to be 36.2.

For the compound `CC(C)(C)OC(=O)N1CCN(CCCCCNC(=O)c2cc(-c3cccs3)on2)CC1` [Example 2, tert-Butyl 4-(5-(5-(thiophen-2-yl)isoxazole-3-carboxamido)pentyl)piperazine-1-carboxylate], the maximal fold induction stood at 35.4.

`N#CCCNC(=O)C1CN(CCCCCNC(=O)c2cc(-c3cccs3)on2)C1` [Example 84, N-(5-(3-((2-Cyanoethyl)carbamoyl)azetidin-1-yl)pentyl)-5-(thiophen-2-yl)isoxazole-3-carboxamide]: the maximal fold induction was 35.1.

In the case of `O=C(NCCCCCN1CC(C(=O)N[C@H]2C[C@@H](O)C2)C1)c1cc(-c2ccc(F)cc2)on1` [Example 92, 5-(4-Fluorophenyl)-N-(5-(3-(((1,3-cis)-3-hydroxycyclobutyl)carbamoyl)azetidin-1-yl)pentyl)isoxazole-3-carboxamide], the maximal fold induction was 13.

For the compound `O=C(NCCCCCN1CCCC(F)C1)c1cc(-c2cccs2)on1` (centres unmarked) [Example 50], the maximal fold induction stood at 23.4.

For the compound `CN(C)C(=O)C1CN(CCCCCNC(=O)c2cc(-c3ccc(F)cc3)on2)C1` [Example 28], the maximal fold induction turned out to be 28.6.

As for `CN1CCN(CCCCCNC(=O)c2cc(-c3ccc(F)s3)on2)CC1` [Example 73, 5-(5-Fluorothiophen-2-yl)-N-(5-(4-methylpiperazin-1-yl)pentyl)isoxazole-3-carboxamide], the maximal fold induction amounted to 19.1.

With `O=C(NCCCCCN1CC2(COC2)C1)c1cc(-c2ccc(F)cc2)on1` [Example 69], the maximal fold induction amounted to 33.5.
